Data on one molecule can be found in publication PMC11831592, “Repurposing Linezolid in Conjunction with Histone Deacetylase Inhibitor Access in the Realm of Glioblastoma Therapies” (Journal of Medicinal Chemistry, 2025).

In one series the test system is CT-2A-R. Briefly: CCK8 cell proliferation assay, CT-2A-R. In kind it is cell-based. Particulars: Mus musculus, CCK8, 72 h. The procedure:
(§1) Cell viability and drug cytotoxicity were determined by a CCK-8 kit (Cell Counting Kit-8, CK04-13, MD, USA) (CCK8, C0005, Target Molecule Corp., MA, USA) reagent. Cells were seeded 2 × 10^3 per well in the 96-well plate for 24 h, followed by treating at different concentrations of compounds for 72 h. Before the experiment, CCK8 was 10-fold diluted with the culture medium and then incubated with cells for 30 min. Finally, the OD was 450 nm absorbance and calculated for cell viability.
On the technique in general: Tetrazolium dyes change colour on reduction, which living cells bring about.

In series [1] the test system is Rad51 protein in PT#3R GBM cells. Briefly: Immunoprecipitation and ubiquitination assay. In kind it is cell-based, human. Particulars: 24 h, IP with anti-Rad51 antibody.
Series [2] concerns histones H3 and H4 in U87MGR GBM cells. Description: Western blot of histone H3 and H4 acetylation. In kind it is cell-based, human. Particulars: 10 μM, within 1 h. On the procedure: The experimental procedure was performed as described in our previous study.[41] On the day prior to the experiment, […] cells were seeded into each well of a 6-well plate. The following day, the cells were washed twice with PBS and treated with 10 μM compound 1. The acetylation status of histones H3 and H4, DNA repair, and protein stability assay were assessed at 0–24 h post-treatment. The antibody models and dilution ratios used are detailed in Table S1. Protein image collection and quantification were done by the ChemiDoc Touch Imaging System (Cat. No. 12676029, Bio-Rad Laboratories, Inc., CA, USA).

For another series, the system named is U87MG-R. Description: CCK8 cell proliferation assay, U87MG-R. Conditions: Homo sapiens, CCK8, 72 h. In kind it is cell-based. On the procedure:
as §1

Series [3] deals with PT#3-R TMZ-resistant GBM cell line. Description: cells. In kind it is cell-based. Particulars: MTT. On the procedure: The cytotoxic effects of these compounds were assessed using the MTT assay (Table 1 and Supporting Information IV).
MTT assay was employed to evaluate the cytotoxicity of the synthesized compound against resistant GBM cells. The MTT (3-(4,5-dimethylthiazol-2-yl)-2,5-diphenyltetrazolium bromide, catalog no. AM0818-0005) powder was purchased from BIONOVAS (Ontario, Canada). The MTT was prepared at 10 mg/mL stock with ultrapure water and then stored at −20 °C. […] Before the experiment, the MTT stock was 10-fold diluted with the culture medium and then incubated with cells for 30 min. After the incubation, the MTT medium was discarded and added 300 μL of dimethyl sulfoxide (DMSO, cat. no. D2650, Sigma-Aldrich, MO, USA) to dissolve the cells.

The subject of the next series is PT#3R cells. Description: Cell cycle analysis by flow cytometry. In kind it is cell-based, human. Particulars: 72 h. On the procedure: To measure the cell cycle, cells were seeded 5 × 10^4 per well in a 12-well plate for 24 h, followed by treatment of the different concentrations of compounds for 72 h. Next, the cells were fixed with 70% ethanol and stored at −20 °C for at least 24 h. After washing, the cells were stained with 30 μg/mL propidium iodide (PI, Cat# P4170, Sigma-Aldrich) and contented 10 ng/mL RNaseA (Cat# R6148, Sigma-Aldrich) for 30 min, followed by detection using flow cytometry Guava easyCyte Flow Cytometers and then analyzed by the Guava easyCyte System 3.3 (Cytec Industries Incorporated, NJ, USA).

For series [4], the system named is A172-R TMZ-resistant GBM cell line. Briefly: MTT cytotoxicity assay, A172-R. In kind it is cell-based. Particulars: Homo sapiens, 72 h. On the procedure:
We utilized linezolid as the structural foundation to confirm the cytotoxicity of linezolid-conjugated functional domains against glioblastoma (GBM). We combined it with the binding structures of anti-histone deacetylases (HDACs) (denoted as compounds 1–5 and 11–14), antitubulin (compound 6), anticyclooxygenase (COX) (compound 7), and anti-heat shock protein 90 (Hsp90) (compounds 8–10). These constructs were then administered to TMZ-resistant GBM cell lines A172R and PT#3R at concentrations ranging from 0 to 80 μM over 72 h. The cytotoxic effects of these compounds were assessed using the MTT assay (Table 1 and Supporting Information IV). […] Given the remarkable cytotoxicity of compound 1 on both A172-R and PT#3-R TMZ-resistant cells, this study subsequently focused on compound 1 for further in-depth investigation and mechanistic exploration. To validate that the cytotoxic effect of compound 1 on GBM is not attributed to linezolid alone, we separately treated the TMZ-resistant GBM cell line PT#3-R with compound 1 and linezolid. […] This confirms that the cytotoxicity of compound 1 against GBM is primarily attributable to the inhibitory structure of linezolid-conjugated HDAC (Figure 2A). Furthermore, we compared the cytotoxic effects of compound 1 on various wild-type brain tumor cell lines, including U87MG, PT#3, LN229 GBM cells, and CT-2A mouse astrocyte cell line as well as TMZ-resistant variants cell lines, including U87MG-R, PT#3-R, CT-2A-R, and T98G (MGMT-positive). […] Additionally, we further confirmed the efficacy of compound 1 in GBM treatment.
MTT assay was employed to evaluate the cytotoxicity of the synthesized compound against resistant GBM cells. The MTT (3-(4,5-dimethylthiazol-2-yl)-2,5-diphenyltetrazolium bromide, catalog no. AM0818-0005) powder was purchased from BIONOVAS (Ontario, Canada). The MTT was prepared at 10 mg/mL stock with ultrapure water and then stored at −20 °C. All cells were seeded 2.5 × 10^4 per well in the 24-well plate for 24 h, followed by treating at different concentrations of compounds for 72 h. Before the experiment, the MTT stock was 10-fold diluted with the culture medium and then incubated with cells for 30 min. After the incubation, the MTT medium was discarded and added 300 μL of dimethyl sulfoxide (DMSO, cat. no. D2650, Sigma-Aldrich, MO, USA) to dissolve the cells. Finally, 100 μL of the mixture was transferred to measure the OD 595 nm absorbance.

Broadly, the IC50 is the concentration that gives 50% inhibition. A low value points to greater potency in that assay. Take `O=C(/C=C/c1ccc(CNC[C@H]2CN(c3ccc(N4CCOCC4)c(F)c3)C(=O)O2)cc1)NO` [compound 1, (S,E)-3-(4-((((3-(3-Fluoro-4-morpholinophenyl)-2-oxooxazolidin-5-yl)methyl)ami-no)methyl)phenyl)-N-hydroxyacrylamide]: the IC50 was found to be 8.27 ± 1.39 µM in the series with CT-2A-R; 16.6 ± 0.45 µM in the series with U87MG-R; 12.1 ± 1.48 µM in series [3] (Homo sapiens, 72 h); 17.4 ± 1.21 µM in series [4]. Further, the Rad51 ubiquitination result in series [1] was “significant increase in Rad51 ubiquitination”. The “acetylation in histones H3 and H4” value in series [2] is “significant induction of acetylation”. For the same molecule, the “cytotoxic effect on resistant GBM cells” value in series [3] (20 μM and above) was “significant cytotoxic effect”. Moreover, in the series on PT#3R cells, the cell cycle distribution entry is “G2/M phase arrest and increases in the sub-G1 cell population”.
